Results taken from patent US6428950B1, “Assay to identify compounds that alter apolipoprotein E expression” (Scios Inc., priority 1998, dated 2002).

Experiments:
BV-2 microglial cells = test: basal apoE production from BV-2 microglial cell cultures; format: cell-based, murine; settings: no β-amyloid treatment, FIG. 5
Source text: Microglial cell lines were used to evaluate changes in apoE expression. Microglial cell lines for use in the method of the invention include murine lines, e.g. BV-2 cell line (Blasi et al. J. Neuroimmunol. 27:229-237 (1990) and the N9 cell line (Corradin et al. Glia 7:255-262 (1993) or human lines such as those described in Janabi et al. Neurosci. Lett. 195:105-108 (1995). The microglial cell lines used were obtained from the investigators who isolated the lines. Astroglial continuous cell lines were also utilized in the assay, e.g. the human U373-MG line or the rodent lines C6 and DI TNC1. All of these astrocytic lines were obtained, from the American Tissue Culture Collection cell repository (Rockville, Md.).
To screen for inhibitors of apoE secretion or production using cultured brain cells, wells containing cultures were incubated in serum-free medium or medium containing reduced serum concentrations (1 to 0.1%) for various periods of time anywhere from 1-72 hours in the presence of the test compound. For some inhibitors, such as HMG CoA reductase and farnesylation inhibitors, pre-treatment of the cultures with the compound for 4-16 hours in serum-containing growth medium was used to maximize the effectiveness of the assay. Cultures were treated with β-amyloid to stimulate apoE levels in the test paradigm. […]

[1] = tested on: murine mixed primary glia; test: basal apoE production from murine mixed primary glia cultures; format: cell-based; settings: no β-amyloid treatment, FIG. 5
Source text: Primary mixed glial cultures, purified primary astrocyte, and purified primary microglial cultures prepared from rodent or human brain tissue (generally fetal) were used in the test assay. A variety of preparation methods can be used to isolate primary glial cultures, both mixed and purified for astroglial or microglial cell types. See e.g. McCarthy and de Vellis, J. Cell Biol. 85:890-902 (1980); Levinson & McCarthy in Culturing Nerve Cells, MIT Press, Cambridge, Mass. at 309-336 (1991); Hu et al. J. Biol. Chem. 271:2543-2547 (1996); Stone et al. Exptl. Neurol. 143:313-318 (1997); Barger et al. Mol. Brain Res. 40:116-126 (1996); and Manthorpe et al. J. Neurocytol. 8:605-621 (1979). Also, primary glial cultures can be prepared which include neurons, such as in the procedure described by Messmer-Joudrier et al. Eur. J. Neurosci. 8: 2652-2661 (1996). For primary cell cultures, different brain regions were used to isolate the cells. Hippocampal, cortical, cerebellar or brain stem cultures were prepared. Primary and continuous cell lines were plated into wells of a multi-well plate at a subconfluent density for the assay. Typically, the cultures were used within 1-2 days of initial plating. […]

[2] = tested on: organotypic hippocampal cultures; test: apoE release from organotypic hippocampal brain slice cultures; format: cell-based, rat; settings: for inhibition of apoE: organotypic hippocampal brain slice cultures, FIG. 7
Procedure: Eight day old neonatal rat or mouse pups were quickly decapitated with scissors, serrated on one edge, in an aseptic fume hood. The brain was rapidly removed to buffered dissection media containing 100 ml MEM, 1 ml penicillin/streptomycin, 1 ml Tris 100×stock (10 mm final, pH 7.2), sterile filtered and chilled. The hippocampi and cortices were isolated under a dissecting microscope and transported in dissection media to a sterile fume hood. Tissue was positioned on the stage of a MacIllwain tissue chopper with a sterile paint brush, and 400 μm sections were made. Approximately 30 sections per animal were be obtained. Sections were separated by vigorously swirling the petri dish containing the sections in culture media, containing 25% horse serum, 25% Hank's media, 50% minimal essential media, 1 ml penicillin/streptomycin, 0.5 ml L-glutamine. Sections were inspected with a dissecting microscope and damaged tissue removed. The selected sections were manipulated in drops of dissecting media with Pasteur pipettes which had been scored and broken, then fire polished, to produce appropriate diameter bores, and placed on Millipore culture plate inserts set into 35 mm plate containing 1 ml culture media or 6 well plates containing 1.2 ml culture media. Plates containing inserts and media had been pre-equilibrated to 37° C. and 5% CO2. Three to six slices were positioned on each insert. Excess media was drawn off the slice, and the culture placed in a 37° C., 5% CO2 incubator. Cultures were maintained for up to 3 months. Media was changed at 24 hours, and at 3-4 day intervals.
Media was pre-equilibrated in plates at 37° C., 5% CO2. Culture inserts holding 3 rat organotypic brain slices obtained from 8 day old animals and maintained in culture for 2 weeks were transferred to the media containing test solution. […]
After treatment, medium is harvested and assayed for apoE levels using immunoassays such as ELISA or Western blot. Cell lysates prepared from the treated brain slices and analyzed for cell-associated apoE using the same assays.

Compound | basal apoE levels (BV-2 microglial cells) | basal apoE levels [1] | apoE release ([2]; organotypic hippocampal cultures, 24, 48, 72 hours after treatment, FIG. 6) | inhibition of apoE [2] | inhibition of apoE ([2]; listed as NaSalicylate)
COC(=O)[C@H](CC(C)C)NC(=O)c1ccc(NC[C@@H](N)CS)cc1-c1ccccc1 [GGTI-286] | reduced basal apoE levels | reduced basal apoE levels | inhibitory effect on apoE release | – | –
O=C([O-])c1ccccc1O.[Na+] [sodium salicylate] | – | – | – | time- and dose-dependent inhibition of apoE | dose dependent inhibition of apoE
